Reference: ChEMBL document CHEMBL4732043, “The discovery of novel indazole derivatives as tubulin colchicine site binding agents that displayed potent antitumor activity both in vitro and in vivo” (Eur J Med Chem, 2020)

Key:
HCT-116 [1] = assay: Antitumor activity against human HCT-116 cells xenografted in nude mouse assessed as inhibition of tumor growth at 25 mg/kg, po for 21 days; type: functional; settings: HCT-116, po, 504 h, time 21 day, read-out: TGI
[2] = Toxicity in nude mouse xenografted with human HCT-116 cells assessed as change in body weight at 25 mg/kg, po for 21 days (reference value: 2.2%); type: organism-based; settings: in vivo, 504 h, time 21 day
HepG2 = assay: Antiproliferative activity against human HepG2 cells assessed as cell viability after 72 hrs by MTT assay; type: functional
A549 = assay: Antiproliferative activity against human A549 cells assessed as cell viability after 72 hrs by MTT assay; type: functional
HCT-116 [3] = assay: Antiproliferative activity against human HCT-116 cells assessed as cell viability after 72 hrs by MTT assay; type: functional
[4] = target: Tubulin beta (Homo sapiens) (UniProt P68371+Q9H4B7+Q13509+P04350+Q3ZCM7+P07437+Q13885+Q9BVA1+Q9BUF5+A6NNZ2); assay: Inhibition of N,N'-Ethylenebis(iodoacetamide) binding to beta-tubulin in human HCT-116 cells assessed as reduction in EBI/beta-tubulin adduct formation preincubated for 2 hrs followed by EBI addition and measured after 1.5 hrs by Western blot analysis; type: cell-based; settings: dose 0.2-25 µM, time 3.5 hrs
HCT-116 [5] = assay: Induction of cell cycle arrest in human HCT-116 cells assessed as accumulation of cells at G1 phase at 20 nM after 24 hrs by flow cytometry (reference value: 40.5%); type: functional
Tubulin (Homo sapiens) [6] = target: T1, Tubulin (Homo sapiens) (UniProt P68371+Q9H4B7+P0DPH7+P68366+Q13509+Q71U36+P04350+Q3ZCM7+P07437+P68363+Q9BQE3+Q6PEY2+Q13885+Q9BVA1+Q9BUF5); assay: Inhibition of tubulin polymerization in human HCT-116 cells assessed as microtubule network polymerization after 24 hrs by immunofluorescence analysis; type: cell-based; settings: dose 20-40 nM
HT-29 = assay: Antiproliferative activity against human HT-29 cells assessed as cell viability after 72 hrs by MTT assay; type: functional
HCT-116 [7] = assay: Induction of apoptosis in human HCT-116 cells assessed as late apoptotic cells at 10 nM after 24 hrs by annexinV and 7-ADD staining based flow cytometry (reference value: 1.5%); type: functional
HCT-116 [8] = assay: Induction of cell cycle arrest in human HCT-116 cells assessed as accumulation of cells at G2/M phase at 10 nM after 24 hrs by flow cytometry (reference value: 16.35%); type: functional
HCT-116 [9] = assay: Antitumor activity against human HCT-116 cells xenografted in nude mouse assessed as inhibition of tumor growth at 12.5 mg/kg, po for 21 days; type: functional; settings: HCT-116, po, 504 h, time 21 day, read-out: TGI
[10] = (§1) Inhibition of porcine brain tubulin polymerization by fluorescence based assay; type: cell-based, Sus scrofa domesticus, 1-87 tumor cell line
1-87 tumor cell line = assay: as §1; settings: Sus scrofa domesticus
HCT-116 [11] = assay: Induction of apoptosis in human HCT-116 cells assessed as early apoptotic cells at 20 nM after 24 hrs by annexinV and 7-ADD staining based flow cytometry (reference value: 0.9%); type: functional
HCT-116 [12] = assay: Induction of apoptosis in human HCT-116 cells assessed as necrotic cells at 40 nM after 24 hrs by annexinV and 7-ADD staining based flow cytometry (reference value: 0.9%); type: functional
HCT-116 [13] = assay: Induction of apoptosis in human HCT-116 cells assessed as viable cells at 10 nM after 24 hrs by annexinV and 7-ADD staining based flow cytometry (reference value: 96.7%); type: functional; settings: read-out: Activity
Tubulin (Homo sapiens) [14] = target: T1, Tubulin (Homo sapiens); assay: Inhibition of tubulin polymerization in human HCT-116 cells assessed as complete microtubule depolymerization at 40 nM after 24 hrs by immunofluorescence analysis; type: cell-based
[15] = Toxicity in nude mouse xenografted with human HCT-116 cells assessed as change in body weight at 12.5 mg/kg, po for 21 days (reference value: 2.2%); type: organism-based; settings: in vivo, 504 h, time 21 day
HCT-116 [16] = assay: Induction of apoptosis in human HCT-116 cells assessed as early apoptotic cells at 10 nM after 24 hrs by annexinV and 7-ADD staining based flow cytometry (reference value: 0.9%); type: functional
[17] = Cytotoxicity against HUVEC assessed as cell viability after 72 hrs by MTT assay; type: cell-based; settings: human, HUVEC cells
HCT-116 [18] = assay: Induction of apoptosis in human HCT-116 cells assessed as necrotic cells at 20 nM after 24 hrs by annexinV and 7-ADD staining based flow cytometry (reference value: 0.9%); type: functional
HCT-116 [19] = assay: Induction of cell cycle arrest in human HCT-116 cells assessed as accumulation of cells at S phase at 20 nM after 24 hrs by flow cytometry (reference value: 43.12%); type: functional
HCT-116 [20] = assay: Induction of cell cycle arrest in human HCT-116 cells assessed as accumulation of cells at G2/M phase at 20 nM after 24 hrs by flow cytometry (reference value: 16.35%); type: functional
HCT-116 [21] = assay: Induction of apoptosis in human HCT-116 cells assessed as viable cells at 40 nM after 24 hrs by annexinV and 7-ADD staining based flow cytometry (reference value: 96.7%); type: functional; settings: read-out: Activity
SW-620 = assay: Antiproliferative activity against human SW-620 cells assessed as cell viability after 72 hrs by MTT assay; type: functional
HCT-116 [22] = assay: Induction of apoptosis in human HCT-116 cells assessed as late apoptotic cells at 20 nM after 24 hrs by annexinV and 7-ADD staining based flow cytometry (reference value: 1.5%); type: functional
Tubulin (Homo sapiens) [23] = target: T1, Tubulin (Homo sapiens); assay: Inhibition of tubulin polymerization in human HCT-116 cells assessed as microtubule spindle formation after 24 hrs by immunofluorescence analysis; type: cell-based; settings: dose 20-40 nM
HCT-116 [24] = assay: Induction of apoptosis in human HCT-116 cells assessed as early apoptotic cells at 40 nM after 24 hrs by annexinV and 7-ADD staining based flow cytometry (reference value: 0.9%); type: functional
HCT-116 [25] = assay: Induction of cell cycle arrest in human HCT-116 cells assessed as accumulation of cells at S phase at 10 nM after 24 hrs by flow cytometry (reference value: 43.12%); type: functional
HCT-116 [26] = assay: Induction of apoptosis in human HCT-116 cells assessed as necrotic cells at 10 nM after 24 hrs by annexinV and 7-ADD staining based flow cytometry (reference value: 0.9%); type: functional
HCT-116 [27] = assay: Induction of cell cycle arrest in human HCT-116 cells assessed as accumulation of cells at G1 phase at 10 nM after 24 hrs by flow cytometry (reference value: 40.5%); type: functional
HCT-116 [28] = assay: Induction of apoptosis in human HCT-116 cells assessed as viable cells at 20 nM after 24 hrs by annexinV and 7-ADD staining based flow cytometry (reference value: 96.7%); type: functional; settings: read-out: Activity
HCT-116 [29] = assay: Induction of apoptosis in human HCT-116 cells assessed as late apoptotic cells at 40 nM after 24 hrs by annexinV and 7-ADD staining based flow cytometry (reference value: 1.5%); type: functional
[30] = target: Proto-oncogene tyrosine-protein kinase Src (Homo sapiens) (UniProt P12931); assay: Inhibition of human recombinant c-SRC (1-530 aa) at 10 uM by radiometric assay
Chain of Proto-oncogene tyrosine-protein kinase Src (Homo sapiens) (P12931 2-536 limits assumed): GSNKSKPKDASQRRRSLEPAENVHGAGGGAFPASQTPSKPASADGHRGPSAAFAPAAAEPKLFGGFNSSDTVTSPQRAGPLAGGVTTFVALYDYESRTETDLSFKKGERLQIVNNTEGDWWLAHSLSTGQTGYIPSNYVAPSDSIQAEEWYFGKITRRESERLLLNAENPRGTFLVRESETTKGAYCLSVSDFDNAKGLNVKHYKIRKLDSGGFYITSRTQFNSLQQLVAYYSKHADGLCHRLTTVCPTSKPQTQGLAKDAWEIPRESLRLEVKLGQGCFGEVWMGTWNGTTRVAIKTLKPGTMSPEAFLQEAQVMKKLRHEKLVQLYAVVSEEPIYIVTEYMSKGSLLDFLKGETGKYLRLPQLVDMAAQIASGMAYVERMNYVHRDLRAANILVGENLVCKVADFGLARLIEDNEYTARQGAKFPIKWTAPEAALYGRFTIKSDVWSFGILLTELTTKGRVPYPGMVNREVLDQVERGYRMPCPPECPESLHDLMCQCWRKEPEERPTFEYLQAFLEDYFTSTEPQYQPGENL

[31] = target: Vascular endothelial growth factor receptor 2 (Homo sapiens) (UniProt P35968); assay: Inhibition of human KDR expressed in mammalian expression system at 10 uM by radiometric assay
Chain of Vascular endothelial growth factor receptor 2 (Homo sapiens) (P35968 whole entry): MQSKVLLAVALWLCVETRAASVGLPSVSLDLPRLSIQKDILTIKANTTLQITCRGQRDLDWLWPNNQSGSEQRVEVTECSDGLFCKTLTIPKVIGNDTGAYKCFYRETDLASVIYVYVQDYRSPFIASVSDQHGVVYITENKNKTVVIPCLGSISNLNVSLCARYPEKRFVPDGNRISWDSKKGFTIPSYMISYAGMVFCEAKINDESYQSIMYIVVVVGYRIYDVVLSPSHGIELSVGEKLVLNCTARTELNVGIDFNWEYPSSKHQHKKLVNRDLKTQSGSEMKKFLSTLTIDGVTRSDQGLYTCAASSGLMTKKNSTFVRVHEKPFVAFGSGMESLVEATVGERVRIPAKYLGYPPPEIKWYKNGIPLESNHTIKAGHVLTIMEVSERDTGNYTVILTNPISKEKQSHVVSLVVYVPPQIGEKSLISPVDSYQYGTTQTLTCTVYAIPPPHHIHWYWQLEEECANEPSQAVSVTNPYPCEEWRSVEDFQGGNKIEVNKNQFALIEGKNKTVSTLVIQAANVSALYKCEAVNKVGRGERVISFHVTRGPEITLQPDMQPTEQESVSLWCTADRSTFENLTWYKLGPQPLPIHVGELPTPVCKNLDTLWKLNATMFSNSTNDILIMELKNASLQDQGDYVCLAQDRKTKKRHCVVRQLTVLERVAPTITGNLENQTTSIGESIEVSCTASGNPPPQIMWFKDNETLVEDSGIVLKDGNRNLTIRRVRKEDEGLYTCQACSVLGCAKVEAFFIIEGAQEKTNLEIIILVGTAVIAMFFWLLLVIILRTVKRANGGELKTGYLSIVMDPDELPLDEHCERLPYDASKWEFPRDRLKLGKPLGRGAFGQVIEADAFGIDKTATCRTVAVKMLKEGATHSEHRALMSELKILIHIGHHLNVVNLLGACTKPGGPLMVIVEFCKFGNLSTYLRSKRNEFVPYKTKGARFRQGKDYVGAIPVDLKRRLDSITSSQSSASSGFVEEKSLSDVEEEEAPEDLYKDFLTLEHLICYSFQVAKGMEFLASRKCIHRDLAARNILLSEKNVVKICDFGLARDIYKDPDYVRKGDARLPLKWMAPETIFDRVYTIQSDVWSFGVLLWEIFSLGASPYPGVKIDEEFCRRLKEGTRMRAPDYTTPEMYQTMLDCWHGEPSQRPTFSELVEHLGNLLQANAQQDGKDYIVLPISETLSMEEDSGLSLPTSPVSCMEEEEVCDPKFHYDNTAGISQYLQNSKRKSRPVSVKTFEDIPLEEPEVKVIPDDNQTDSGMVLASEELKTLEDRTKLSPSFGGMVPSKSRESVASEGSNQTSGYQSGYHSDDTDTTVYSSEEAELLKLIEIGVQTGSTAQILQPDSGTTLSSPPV

[32] = target: Protein kinase C alpha type (Homo sapiens) (UniProt P17252); assay: Inhibition of human recombinant PKCalpha at 10 uM by radiometric assay

O=c1[nH]cc(F)c(=O)[nH]1 [FLUOROURACIL]
inhibition in vivo at 25 mg/kg (HCT-116 [1]): 45.5%
Activity [2]: 21.8%

COc1ccc(Nc2n[nH]c3cc(C)ccc23)cc1OC
GI50 (HepG2): 630 nM
GI50 (A549): 990 nM
GI50 (HCT-116 [3]): 2260 nM

COc1cc(Nc2n[nH]c3cc(C)ccc23)cc(OC)c1OC
inhibition [4]: Dose-dependent effect
GI50 (HepG2): 27 nM
Activity (HCT-116 [5]): 14.25%
inhibition (Tubulin (Homo sapiens) [6]): Dose-dependent effect
GI50 (HT-29): 31 nM
Activity (HCT-116 [7]): 12.7%
Activity (HCT-116 [8]): 29%
inhibition in vivo at 12.5 mg/kg (HCT-116 [9]): 27.4%
IC50 [10]: 3390 nM
inhibition (1-87 tumor cell line): Dose-dependent effect
Activity (HCT-116 [11]): 8.9%
Activity (HCT-116 [12]): 1.5%
viability at 0.01 µM (HCT-116 [13]): 79.9%
inhibition (Tubulin (Homo sapiens) [14]): 100%
Activity [15]: 2.7%
Activity (HCT-116 [16]): 4.7%
GI50 at 72 h [17]: > 25000 nM
Activity (HCT-116 [18]): 2.1%
Activity (HCT-116 [19]): 4.68%
Activity (HCT-116 [20]): 81.07%
viability at 0.04 µM (HCT-116 [21]): 62.2%
inhibition in vivo at 25 mg/kg (HCT-116 [1]): 45.3%
GI50 (SW-620): 8 nM
Activity (HCT-116 [22]): 13.7%
inhibition (Tubulin (Homo sapiens) [23]): Dose-dependent effect
Activity (HCT-116 [24]): 15.4%
Activity (HCT-116 [25]): 36.46%
Activity (HCT-116 [26]): 2.7%
Activity (HCT-116 [27]): 34.54%
viability at 0.02 µM (HCT-116 [28]): 75.4%
GI50 (A549): 33 nM
Activity (HCT-116 [29]): 20.9%
Activity [2]: 6.5%
GI50 (HCT-116 [3]): 15 nM

COc1cc(Nc2n[nH]c3cc(C)ccc23)cc(OC)c1
GI50 (HepG2): 200 nM
GI50 (A549): 1100 nM
GI50 (HCT-116 [3]): 700 nM

COc1ccc(Nc2n[nH]c3ccc(C)cc23)cc1
GI50 (HepG2): > 25000 nM
GI50 (A549): > 25000 nM
GI50 (HCT-116 [3]): > 25000 nM

COc1cc(Nc2n[nH]c3ccc(C)cc23)cc(OC)c1
GI50 (HepG2): > 25000 nM
GI50 (A549): > 25000 nM
GI50 (HCT-116 [3]): > 25000 nM

COc1ccc2c(Nc3cc(OC)c(OC)c(OC)c3)n[nH]c2c1
inhibition [4]: Dose-dependent effect
GI50 (HepG2): 53 nM
Activity (HCT-116 [5]): 6.85%
inhibition (Tubulin (Homo sapiens) [6]): Dose-dependent effect
GI50 (HT-29): 96 nM
Activity (HCT-116 [7]): 10.1%
Activity (HCT-116 [8]): 21.57%
inhibition in vivo at 12.5 mg/kg (HCT-116 [9]): 34.3%
IC50 [10]: 4770 nM
inhibition (1-87 tumor cell line): Dose-dependent effect
Activity (HCT-116 [11]): 5.2%
Activity (HCT-116 [12]): 3.5%
viability at 0.01 µM (HCT-116 [13]): 81.8%
inhibition [30]: 35%
inhibition (Tubulin (Homo sapiens) [14]): 100%
Activity [15]: 2.8%
Activity (HCT-116 [16]): 5.1%
GI50 at 72 h [17]: > 25000 nM
Activity (HCT-116 [18]): 2.6%
Activity (HCT-116 [19]): 6.04%
Activity (HCT-116 [20]): 87.12%
viability at 0.04 µM (HCT-116 [21]): 66.2%
inhibition in vivo at 25 mg/kg (HCT-116 [1]): 59.9%
GI50 (SW-620): 24 nM
inhibition [31]: 66%
Activity (HCT-116 [22]): 13.1%
inhibition (Tubulin (Homo sapiens) [23]): Dose-dependent effect
Activity (HCT-116 [24]): 12.8%
Activity (HCT-116 [25]): 41.56%
Activity (HCT-116 [26]): 3.1%
Activity (HCT-116 [27]): 36.86%
viability at 0.02 µM (HCT-116 [28]): 79.2%
inhibition [32]: 24%
GI50 (A549): 65 nM
Activity (HCT-116 [29]): 17.6%
Activity [2]: 1.1%
GI50 (HCT-116 [3]): 41 nM

COc1cc(Nc2n[nH]c3cc(F)ccc23)cc(OC)c1OC
GI50 (HepG2): 16000 nM
GI50 (A549): 21300 nM
GI50 (HCT-116 [3]): 5300 nM

Cc1ccc2[nH]nc(Nc3ccc4c(c3)OCO4)c2c1
GI50 (HepG2): > 25000 nM
GI50 (A549): > 25000 nM
GI50 (HCT-116 [3]): > 25000 nM

COc1ccc(Nc2n[nH]c3cc(C)ccc23)cc1
GI50 (HepG2): > 25000 nM
GI50 (A549): > 25000 nM
GI50 (HCT-116 [3]): > 25000 nM

COc1cc(Nc2n[nH]c3cccc(C)c23)cc(OC)c1OC
GI50 (HepG2): 10100 nM
GI50 (A549): 6100 nM
GI50 (HCT-116 [3]): 9300 nM

COc1cc(Nc2n[nH]c3cc(OC)ccc23)cc(OC)c1
GI50 (HepG2): 780 nM
GI50 (A549): 510 nM
GI50 (HCT-116 [3]): 960 nM
